Laboratory results reported in patent US10179782B2, “Substituted sulfonamide compounds” (Genentech, Inc., priority 2016, dated 2019).

biological target: T1, human TRPA1 (Homo sapiens, UniProt O75762); test: TRPA1 FLIPR Tetra calcium influx assay in CHO cells (block of cinnamaldehyde-induced calcium influx); type: cell-based; details: Table 2; CHO cells expressing TRPA1; agonist cinnamaldehyde 75 uM; 20 min compound incubation; Hill coefficient fixed to 1.5; read-out: hTRPA1 CHO Ca2+ AUC EVO (IC50)
T1 construct: expressed in transfected cells; host or cells: CHO cells
T1 sequence (O75762 whole entry): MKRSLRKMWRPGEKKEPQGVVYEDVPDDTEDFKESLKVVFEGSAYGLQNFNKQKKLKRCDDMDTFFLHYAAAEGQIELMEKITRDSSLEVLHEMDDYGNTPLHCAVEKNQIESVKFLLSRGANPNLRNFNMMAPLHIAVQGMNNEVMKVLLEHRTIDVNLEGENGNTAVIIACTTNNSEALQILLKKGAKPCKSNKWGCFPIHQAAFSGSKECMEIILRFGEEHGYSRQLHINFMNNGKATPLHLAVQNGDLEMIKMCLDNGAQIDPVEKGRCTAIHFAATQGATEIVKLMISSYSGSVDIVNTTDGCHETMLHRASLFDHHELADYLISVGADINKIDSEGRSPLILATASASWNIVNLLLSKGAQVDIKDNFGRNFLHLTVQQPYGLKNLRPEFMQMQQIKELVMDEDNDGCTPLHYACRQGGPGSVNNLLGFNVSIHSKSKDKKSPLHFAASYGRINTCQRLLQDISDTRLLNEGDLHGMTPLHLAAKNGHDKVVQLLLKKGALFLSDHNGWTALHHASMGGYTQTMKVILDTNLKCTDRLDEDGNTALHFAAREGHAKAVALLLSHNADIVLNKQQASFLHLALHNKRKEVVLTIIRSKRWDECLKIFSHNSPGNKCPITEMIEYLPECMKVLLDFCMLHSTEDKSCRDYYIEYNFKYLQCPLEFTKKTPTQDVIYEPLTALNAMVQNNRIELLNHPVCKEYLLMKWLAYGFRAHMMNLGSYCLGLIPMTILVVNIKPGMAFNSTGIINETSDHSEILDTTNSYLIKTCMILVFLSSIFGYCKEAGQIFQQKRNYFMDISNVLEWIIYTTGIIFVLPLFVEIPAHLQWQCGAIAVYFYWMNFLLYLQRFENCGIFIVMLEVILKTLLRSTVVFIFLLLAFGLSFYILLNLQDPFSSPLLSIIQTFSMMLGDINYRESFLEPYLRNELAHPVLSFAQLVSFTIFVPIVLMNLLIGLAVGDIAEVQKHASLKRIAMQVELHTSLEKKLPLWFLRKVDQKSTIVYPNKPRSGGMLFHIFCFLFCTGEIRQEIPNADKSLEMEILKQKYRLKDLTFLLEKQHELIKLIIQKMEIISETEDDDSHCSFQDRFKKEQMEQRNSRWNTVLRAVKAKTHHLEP
Procedure, shortened: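 CHO cells expressing TRPA1 were loaded with calcium dye in HBSS/20 mM HEPES, pH 7.4, 0.02% BSA, then given compound for 20 min at room temperature before ~EC80 cinnamaldehyde (75 µM human, 45 µM rat). Block of calcium influx was read on FLIPR Tetra; IC50 fitted with Hill coefficient fixed at 1.5.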

| SMILES | IC50 [nM] |
| --- | --- |
| COc1nn(-c2cnc(C(F)(F)F)nc2)cc1CNC(=O)[C@@H]1C[C@@H](F)[C@H](C)N1S(=O)(=O)c1cc2cc(F)ccc2o1 [Example 117, (2S,4R,5S)-4-fluoro-1-(5-fluorobenzofuran-2-yl)sulfonyl-N-[[3-methoxy-1-[2-(trifluoromethyl)pyrimidin-5-yl]pyrazol-4-yl]methyl]-5-methyl-pyrrolidine-carboxamide] | 1.09 |
| C[C@H]1[C@H](F)C[C@@H](C(=O)NCc2cc(-c3cnc(C(F)(F)F)nc3)ncc2F)N1S(=O)(=O)c1ccncc1 [Example 39, (2S,4R,5S)-4-fluoro-N-((5-fluoro-2-(2-(trifluoromethyl)pyrimidin-5-yl)pyridin-4-yl)methyl)-5-methyl-1-(pyridin-4-ylsulfonyl)pyrrolidine-2-carboxamide] | 630 |
| C[C@H]1[C@H](F)C[C@@H](C(=O)NCc2cn(-c3cnc(C(F)(F)F)nc3)nc2C(F)(F)F)N1S(=O)(=O)c1ccc(F)cc1 [Example 46, (2S,4R,5S)-4-fluoro-1-(4-fluorophenylsulfonyl)-5-methyl-N-((3-(trifluoromethyl)-1-(2-(trifluoromethyl)pyrimidin-5-yl)-1H-pyrazol-4-yl)methyl)pyrrolidine-2-carboxamide] | 26.2 |
| C[C@@]1(F)C[C@@H](C(=O)NCc2cc(-c3cnc(C(F)(F)F)nc3)ncc2C(F)(F)F)N(S(=O)(=O)c2cc3cc(F)ccc3o2)C1 [Example 156, (2S,4R)-4-fluoro-1-(5-fluorobenzofuran-2-yl)sulfonyl-4-methyl-N-[[5-(trifluoromethyl)-2-[2-(trifluoromethyl)pyrimidin-5-yl]-4-pyridyl]methyl]pyrrolidine-2-carboxamide] | 1.93 |
| C[C@H]1[C@H](F)C[C@@H](C(=O)NCc2cc(N3CC[C@H](OC(F)(F)F)C(F)(F)C3)ncc2F)N1S(=O)(=O)c1ccc(F)cc1 [Example 145, (2S,4R,5S)-N-[[2-[(4S)-3,3-difluoro-4-(trifluoromethoxy)-1-piperidyl]-5-fluoro-4-pyridyl]methyl]-4-fluoro-1-(4-fluorophenyl)sulfonyl-5-methyl-pyrrolidine-2-carboxamide] | 8.36 |
| COC[C@H]1CC[C@@H](C(=O)NCc2cc(-c3cnc(C(F)(F)F)nc3)ncc2F)N1S(=O)(=O)c1ccc(F)cc1 [Example 80, (2S,5R)-N-((5-fluoro-2-(2-(trifluoromethyl)pyrimidin-5-yl)pyridin-4-yl)methyl)-1-((4-fluorophenyl)sulfonyl)-5-(methoxymethyl)pyrrolidine-2-carboxamide] | 98.2 |
| C[C@H]1[C@H](F)C[C@@H](C(=O)NCc2cc(-c3cnc(C(F)(F)F)nc3)cnc2C2CC2)N1S(=O)(=O)c1ccc(F)cc1 [Example 110, (2S,4R,5S)-N-[[2-cyclopropyl-5-[2-(trifluoromethyl)pyrimidin-5-yl]-3-pyridyl]methyl]-4-fluoro-1-(4-fluorophenyl)sulfonyl-5-methyl-pyrrolidine-2-carboxamide] | 10.6 |
| C[C@H]1[C@H](F)C[C@@H](C(=O)NCc2cc(-c3cnc(C(F)(F)F)s3)c(F)cn2)N1S(=O)(=O)c1ccc(F)cc1 [Example 85, (2S,4R,5S)-4-fluoro-1-(4-fluorophenyl)sulfonyl-N-[[5-fluoro-4-[2-(trifluoromethyl)thiazol-5-yl]-2-pyridyl]methyl]-5-methyl-pyrrolidine-2-carboxamide] | 33.7 |
| O=C(NCc1cc(-c2cnc(C(F)(F)F)nc2)cc(F)c1F)[C@@H]1C[C@@H](F)CN1S(=O)(=O)c1ccc(F)cc1 [Example 76, (2S,4R)-N-[[2,3-difluoro-5-[2-(trifluoromethyl)pyrimidin-5-yl]phenyl]methyl]-4-fluoro-1-(4-fluorophenyl)sulfonyl-pyrrolidine-2-carboxamide] | 39.3 |
| C[C@H]1[C@H](F)C[C@@H](C(=O)NCc2cc(-c3cnc(C(F)(F)F)nc3)ncc2C(F)(F)F)N1S(=O)(=O)c1cc2cc(F)ccc2o1 [Example 153, (2S,4R,5S)-4-fluoro-1-(5-fluorobenzofuran-2-yl)sulfonyl-5-methyl-N-[[5-(trifluoromethyl)-2-[2-(trifluoromethyl)pyrimidin-5-yl]-4-pyridyl]methyl]pyrrolidine-2-carboxamide] | 0.229 |
| C[C@H]1[C@H](F)C[C@@H](C(=O)NCc2cc(-c3ccc(C(F)(F)F)nc3)ncc2C(F)(F)F)N1S(=O)(=O)c1ccc(F)cc1 [Example 115, (2S,4R,5S)-4-fluoro-1-(4-fluorophenyl)sulfonyl-5-methyl-N-[[5-(trifluoromethyl)-2-[6-(trifluoromethyl)-3-pyridyl]-4-pyridyl]methyl]pyrrolidine-2-carboxamide] | 1.34 |
| C[C@H]1[C@H](F)C[C@@H](C(=O)NCc2cc(-c3cnc(C(F)(F)F)nc3)nc(C(F)(F)F)c2)N1S(=O)(=O)c1ccc(F)cc1 [Example 113, (2S,4R,5S)-4-fluoro-1-(4-fluorophenyl)sulfonyl-5-methyl-N-[[2-(trifluoromethyl)-6-[2-(trifluoromethyl)pyrimidin-5-yl]-4-pyridyl]methyl]pyrrolidine-2-carboxamide] | 4.47 |
| C[C@H]1[C@H](F)C[C@@H](C(=O)NCc2cc(C3CCN(CC(F)(F)F)CC3)ncc2F)N1S(=O)(=O)c1ccc(F)cc1 [Example 88, (2S,4R,5S)-4-fluoro-1-(4-fluorophenyl)sulfonyl-N-[[5-fluoro-2-[1-(2,2,2-trifluoroethyl)-4-piperidyl]-4-pyridyl]methyl]-5-methyl-pyrrolidine-2-carboxamide] | 42.3 |
| C[C@H]1[C@H](F)C[C@@H](C(=O)NCc2cc(-c3ccc(C(F)(F)F)nc3)c(F)cn2)N1S(=O)(=O)c1ccc(F)cc1 [Example 36, (2S,4R,5S)-4-fluoro-N-([5-fluoro-4-[6-(trifluoromethyl)pyridin-3-yl]pyridin-2-yl]methyl)-1-[(4-fluorobenzene)sulfonyl]-5-methylpyrrolidine-2-carboxamide] | 26 |
| C[C@H]1[C@H](F)C[C@@H](C(=O)NCc2cc(-c3cnc(C(F)(F)F)c(F)c3)c(F)cn2)N1S(=O)(=O)c1ccc(F)cc1 [Example 144, (2S,4R,5S)-4-fluoro-N-[[5-fluoro-4-[5-fluoro-6-(trifluoromethyl)-3-pyridyl]-2-pyridyl]methyl]-1-(4-fluorophenyl)sulfonyl-5-methyl-pyrrolidine-2-carboxamide] | 17 |
| C[C@H]1CC[C@@H](C(=O)NCc2cc(-c3cnc(C(F)(F)F)nc3)ncc2F)N1S(=O)(=O)c1ccc(F)cc1 [Example 17, (2S,5S)-1-(4-fluorophenyl)sulfonyl-N-[[5-fluoro-2-[2-(trifluoromethyl)pyrimidin-5-yl]-4-pyridyl]methyl]-5-methyl-pyrrolidine-2-carboxamide] | 1.37 |
| C[C@H]1[C@H](F)C[C@@H](C(=O)NCc2cc(C3CCN(CC(F)(F)C(F)(F)F)CC3)ncc2F)N1S(=O)(=O)c1ccc(F)cc1 [Example 94, (2S,4R,5S)-4-fluoro-N-[[5-fluoro-2-[1-(2,2,3,3,3-pentafluoropropyl)-4-piperidyl]-4-pyridyl]methyl]-1-(4-fluorophenyl)sulfonyl-5-methyl-pyrrolidine-2-carboxamide] | 5.52 |
| C[C@H]1CCC[C@@H](C(=O)NCc2cc(-c3cnc(C(F)(F)F)nc3)ncc2F)N1S(=O)(=O)c1ccc(F)cc1 [Example 58, (2S,6S)-1-(4-fluorophenyl)sulfonyl-N-[[5-fluoro-2-[2-(trifluoromethyl)pyrimidin-5-yl]-4-pyridyl]methyl]-6-methyl-piperidine-2-carboxamide] | 73.9 |
| CCc1cc(CNC(=O)[C@@H]2C[C@@H](F)CN2S(=O)(=O)c2ccc(F)cc2)cc(-c2cnc(C(F)(F)F)nc2)n1 [Example 66, (2S,4R)-N-[[2-ethyl-6-[2-(trifluoromethyl)pyrimidin-5-yl]-4-pyridyl]methyl]-4-fluoro-1-(4-fluorophenyl)sulfonyl-pyrrolidine-2-carboxamide] | 76.9 |
| O=C(NCc1cc(-c2cnc(C(F)(F)F)nc2)ncc1C(F)F)[C@@H]1[C@H]2C[C@H]2CN1S(=O)(=O)c1ccc(F)cc1 [Example 150, (1R,4S,5S)-N-[[5-(difluoromethyl)-2-[2-(trifluoromethyl)pyrimidin-5-yl]-4-pyridyl]methyl]-3-(4-fluorophenyl)sulfonyl-3-azabicyclo[3.1.0]hexane-4-carboxamide] | 5.72 |
| O=C(NCc1cc(-c2cnc(C(F)(F)F)nc2)nc(C2CC2)n1)[C@@H]1C[C@@H](F)CN1S(=O)(=O)c1ccc(F)cc1 [Example 73, (2S,4R)-N-[[2-cyclopropyl-6-[2-(trifluoromethyl)pyrimidin-5-yl]pyrimidin-4-yl]methyl]-4-fluoro-1-(4-fluorophenyl)sulfonyl-pyrrolidine-2-carboxamide] | 56.7 |
| C[C@H]1[C@H](F)C[C@@H](C(=O)NCc2cc(-c3cnc(C(F)(F)F)nc3)ncc2C(F)(F)F)N1S(=O)(=O)c1ccc(Cl)nc1 [Example 161, (2S,4R,5S)-1-[(6-chloro-3-pyridyl)sulfonyl]-4-fluoro-5-methyl-N-[[5-(trifluoromethyl)-2-[2-(trifluoromethyl)pyrimidin-5-yl]-4-pyridyl]methyl]pyrrolidine-2-carboxamide] | 1.96 |
| C[C@H]1[C@H](F)C[C@@H](C(=O)NCc2cc(-c3cnc(C(F)(F)F)nc3)c(F)c(C3CC3)n2)N1S(=O)(=O)c1ccc(F)cc1 [Example 131, (2S,4R,5S)-N-[[6-cyclopropyl-5-fluoro-4-[2-(trifluoromethyl)pyrimidin-5-yl]-2-pyridyl]methyl]-4-fluoro-1-(4-fluorophenyl)sulfonyl-5-methyl-pyrrolidine-2-carboxamide] | 4.04 |
| O=C(NCc1cc(-c2cnc(C(F)(F)F)nc2)ncc1C(F)(F)F)[C@@H]1[C@H]2C[C@H]2CN1S(=O)(=O)c1ccc(F)cc1 [Example 149, (1S,2S,5R)-3-(4-fluorophenyl)sulfonyl-N-[[5-(trifluoromethyl)-2-[2-(trifluoromethyl)pyrimidin-5-yl]-4-pyridyl]methyl]-3-azabicyclo[3.1.0]hexane-2-carboxamide] | 0.756 |
